The values that follow come from patent US9512089B2, “Tetrazole-substituted arylamides as P2X3 and P2X2/3 antagonists” (Roche Palo Alto LLC, priority 2007, dated 2016).

The experiment deals with T1, P2X2/3 receptor (Homo sapiens, UniProt P56373+Q9UBL9).
T1 construct: expressed in transfected cells; host or cells: CHO-K1
T1 sequence (P56373 1-397): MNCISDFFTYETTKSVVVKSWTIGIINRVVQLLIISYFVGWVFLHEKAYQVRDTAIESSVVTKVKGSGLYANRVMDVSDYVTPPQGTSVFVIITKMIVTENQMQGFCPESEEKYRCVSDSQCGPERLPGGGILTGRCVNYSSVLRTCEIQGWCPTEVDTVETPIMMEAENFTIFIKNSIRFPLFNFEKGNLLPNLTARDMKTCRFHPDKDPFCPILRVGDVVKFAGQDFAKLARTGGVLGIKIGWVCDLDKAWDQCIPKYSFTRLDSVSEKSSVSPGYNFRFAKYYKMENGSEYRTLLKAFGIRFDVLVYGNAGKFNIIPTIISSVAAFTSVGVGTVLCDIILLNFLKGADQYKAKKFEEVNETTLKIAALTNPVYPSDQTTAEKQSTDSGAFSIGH
T1 sequence (Q9UBL9 1-471): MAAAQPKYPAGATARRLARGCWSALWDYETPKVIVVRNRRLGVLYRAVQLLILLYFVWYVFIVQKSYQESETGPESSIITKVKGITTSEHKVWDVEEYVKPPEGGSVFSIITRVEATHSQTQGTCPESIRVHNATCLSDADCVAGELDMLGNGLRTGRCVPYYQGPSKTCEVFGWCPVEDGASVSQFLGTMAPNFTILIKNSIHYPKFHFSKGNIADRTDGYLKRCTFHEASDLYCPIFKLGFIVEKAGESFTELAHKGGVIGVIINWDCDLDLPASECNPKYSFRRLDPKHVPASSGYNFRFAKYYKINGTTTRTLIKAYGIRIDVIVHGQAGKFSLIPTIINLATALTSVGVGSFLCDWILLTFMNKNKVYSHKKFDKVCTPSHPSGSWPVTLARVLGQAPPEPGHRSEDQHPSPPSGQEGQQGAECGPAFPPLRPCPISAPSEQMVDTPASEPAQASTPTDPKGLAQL
Description: P2X2/3 FLIPR (Fluorometric Imaging Plate Reader) assay. The format is cell-based. The note with it: CHO-K1 cells transfected with human P2X2/3; agonist α,β-meATP 5 μM; Fluo-3 fluorescence. As to the method:
CHO-K1 cells were transfected with cloned rat P2X3 or human P2X2/3 receptor subunits and passaged in flasks. 18-24 hours before the FLIPR experiment, cells were released from their flasks, centrifuged, and resuspended in nutrient medium at 2.5×10^5 cells/ml. The cells were aliquoted into black-walled 96-well plates at a density of 50,000 cells/well and incubated overnight in 5% CO2 at 37° C. On the day of the experiment, cells were washed in FLIPR buffer (calcium- and magnesium-free Hank's balanced salt solution, 10 mM HEPES, 2 mM CaCl2, 2.5 mM probenecid; FB). Each well received 100 μl FB and 100 μl of the fluorescent dye Fluo-3 AM [2 μM final conc.]. […]
Test compounds (dissolved in DMSO at 10 mM and serially diluted with FB) or vehicle were added to each well (25 μl of a 4× solution) and allowed to equilibrate for 20 minutes at room temperature. The plates were then placed in the FLIPR and a baseline fluorescence measurement (excitation at 488 nm and emission at 510-570 nm) was obtained for 10 seconds before a 100 μl/well agonist or vehicle addition. […] Fluorescence was measured for an additional 2 minutes at 1 second intervals after agonist addition. A final addition of ionomycin (5 μM, final concentration) was made to each well of the FLIPR test plate to establish cell viability and maximum fluorescence of dye-bound cytosolic calcium. […]

The term IC50 denotes the concentration that inhibits the measured activity by half. As for `CCc1nnnn1-c1cc(C(=O)NC(C)c2cnccn2)cc(-c2ccc(C)cc2)c1` (stereo not shown) [5-(5-ethyl-tetrazol-1-yl)-4′-methyl-biphenyl-3-carboxylic acid (1-pyrazin-2-yl-ethyl)-amide], the IC50 is roughly 7.94 nM.
